Columns and labels:
Jily = assay: MTS proliferation assay; format: cell-based; conditions: 72 h
In short: (§1)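 Compounds at final 10/3/1/0.3 μM (added in complete medium, ≤5% DMSO); 72 h, culture conditions; + MTS, 3 h; A492.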

MRC5 = assay: MTS proliferation assay; format: cell-based; conditions: MRC5, 72 h
In short: as §1

HeLa = assay: MTS proliferation assay; format: cell-based, human; conditions: 72 h
In short: as §1

Jurkat = assay: MTS proliferation assay; format: cell-based, human; conditions: 72 h
In short: as §1

[1] = Hoechst 33342 nuclear staining; format: cell-based; conditions: for Hoechst 33342 nuclear staining score, H460: H460 cells; for Hoechst 33342 nuclear staining score, HeLa: HeLa cells; for Hoechst 33342 nuclear staining score, Jily: Jily cells; for Hoechst 33342 nuclear staining score, Jurkat: Jurkat cells; for Hoechst 33342 nuclear staining score, MRC5: MRC5 cells; as to Hoechst 33342 nuclear staining score, PBLs: key: 0: no activity; 1: weak activity comprising less than 50% of the cells; 2: strong activity comprising more than 50% of the cells;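 as to all read-outs here: apoptotic nuclei scored 0 none 1 weak under 50% of cells 2 strong over 50% of cells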
In short: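 Cells were plated in 96 well tissue culture plates in 80 μl complete medium, with 3-5*10^3 cells per well for adherent lines and 8-10*10^3 for suspension lines. Adherent cells spread for 24 h before treatment, while suspension cells were treated right after seeding. Compounds were added in 20 μl complete medium containing max 5% DMSO.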

COc1ccc(S(=O)(=O)n2cc(-c3cccnc3)cc2-c2cc(OC)c(OC)c(OC)c2)cc1 [Example 76, 1-p-Methoxyphenylsulfonyl-4-(3-pyridyl)-2-(3,4,5-trimethoxyphenyl)-pyrrole]
IC50 (Jily): < 200 nM | IC50 (MRC5; Homo sapiens): < 200 nM | IC50 (HeLa; Homo sapiens): < 200 nM | IC50 (Jurkat; Homo sapiens): < 200 nM | Hoechst 33342 nuclear staining score, H460 ([1]; conc 0.1): 2 (strong activity comprising more than 50% of the cells) | Hoechst 33342 nuclear staining score, H460 ([1]; conc 0.3): 2 (strong activity comprising more than 50% of the cells) | Hoechst 33342 nuclear staining score, H460 ([1]; conc 1): 2 (strong activity comprising more than 50% of the cells) | Hoechst 33342 nuclear staining score, H460 ([1]; conc 3): 2 (strong activity comprising more than 50% of the cells) | Hoechst 33342 nuclear staining score, HeLa ([1]; conc 0.1): 1 (weak activity comprising less than 50% of the cells) | Hoechst 33342 nuclear staining score, HeLa ([1]; conc 0.3): 2 (strong activity comprising more than 50% of the cells) | Hoechst 33342 nuclear staining score, HeLa ([1]; conc 1): 2 (strong activity comprising more than 50% of the cells) | Hoechst 33342 nuclear staining score, HeLa ([1]; conc 3): 2 (strong activity comprising more than 50% of the cells) | Hoechst 33342 nuclear staining score, Jily ([1]; conc 0.1): 2 (strong activity comprising more than 50% of the cells) | Hoechst 33342 nuclear staining score, Jily ([1]; conc 0.3): 2 (strong activity comprising more than 50% of the cells) | Hoechst 33342 nuclear staining score, Jily ([1]; conc 1): 2 (strong activity comprising more than 50% of the cells) | Hoechst 33342 nuclear staining score, Jily ([1]; conc 3): 2 (strong activity comprising more than 50% of the cells) | Hoechst 33342 nuclear staining score, Jurkat ([1]; conc 0.1): 2 (strong activity comprising more than 50% of the cells) | Hoechst 33342 nuclear staining score, Jurkat ([1]; conc 0.3): 2 (strong activity comprising more than 50% of the cells) | Hoechst 33342 nuclear staining score, Jurkat ([1]; conc 1): 2 (strong activity comprising more than 50% of the cells) | Hoechst 33342 nuclear staining score, Jurkat ([1]; conc 3): 2 (strong activity comprising more than 50% of the cells) | Hoechst 33342 nuclear staining score, MRC5 ([1]; conc 0.1): 1 (weak activity comprising less than 50% of the cells) | Hoechst 33342 nuclear staining score, MRC5 ([1]; conc 0.3): 1 (weak activity comprising less than 50% of the cells) | Hoechst 33342 nuclear staining score, MRC5 ([1]; conc 1): 1 (weak activity comprising less than 50% of the cells) | Hoechst 33342 nuclear staining score, MRC5 ([1]; conc 3): 1 (weak activity comprising less than 50% of the cells) | Hoechst 33342 nuclear staining score, PBLs ([1]; conc 0.1): 0 | Hoechst 33342 nuclear staining score, PBLs ([1]; conc 0.3): 0 | Hoechst 33342 nuclear staining score, PBLs ([1]; conc 1): 0 | Hoechst 33342 nuclear staining score, PBLs ([1]; conc 3): 0

COc1cc(-c2cc(-c3cncc(CNC(C)=O)c3)cn2S(=O)(=O)c2ccc(C)cc2)cc(OC)c1OC [Example 60]
IC50 (Jily): < 1000 nM | IC50 (MRC5): < 1000 nM | IC50 (HeLa): < 1000 nM | IC50 (Jurkat): < 1000 nM | Hoechst 33342 nuclear staining score, H460 ([1]; conc 0.1): 0 | Hoechst 33342 nuclear staining score, H460 ([1]; conc 0.3): 0 | Hoechst 33342 nuclear staining score, H460 ([1]; conc 1): 2 (strong activity comprising more than 50% of the cells) | Hoechst 33342 nuclear staining score, H460 ([1]; conc 3): 2 (strong activity comprising more than 50% of the cells) | Hoechst 33342 nuclear staining score, HeLa ([1]; conc 0.1): 0 | Hoechst 33342 nuclear staining score, HeLa ([1]; conc 0.3): 0 | Hoechst 33342 nuclear staining score, HeLa ([1]; conc 1): 1 (weak activity comprising less than 50% of the cells) | Hoechst 33342 nuclear staining score, HeLa ([1]; conc 3): 2 (strong activity comprising more than 50% of the cells) | Hoechst 33342 nuclear staining score, Jily ([1]; conc 0.1): 0 | Hoechst 33342 nuclear staining score, Jily ([1]; conc 0.3): 0 | Hoechst 33342 nuclear staining score, Jily ([1]; conc 1): 2 (strong activity comprising more than 50% of the cells) | Hoechst 33342 nuclear staining score, Jily ([1]; conc 3): 2 (strong activity comprising more than 50% of the cells) | Hoechst 33342 nuclear staining score, Jurkat ([1]; conc 0.1): 0 | Hoechst 33342 nuclear staining score, Jurkat ([1]; conc 0.3): 2 (strong activity comprising more than 50% of the cells) | Hoechst 33342 nuclear staining score, Jurkat ([1]; conc 1): 2 (strong activity comprising more than 50% of the cells) | Hoechst 33342 nuclear staining score, Jurkat ([1]; conc 3): 2 (strong activity comprising more than 50% of the cells) | Hoechst 33342 nuclear staining score, MRC5 ([1]; conc 0.1): 0 | Hoechst 33342 nuclear staining score, MRC5 ([1]; conc 0.3): 0 | Hoechst 33342 nuclear staining score, MRC5 ([1]; conc 1): 0 | Hoechst 33342 nuclear staining score, MRC5 ([1]; conc 3): 2 (strong activity comprising more than 50% of the cells) | Hoechst 33342 nuclear staining score, PBLs ([1]; conc 0.1): 0 | Hoechst 33342 nuclear staining score, PBLs ([1]; conc 0.3): 0 | Hoechst 33342 nuclear staining score, PBLs ([1]; conc 1): 0 | Hoechst 33342 nuclear staining score, PBLs ([1]; conc 3): 0

COc1ccc(S(=O)(=O)n2cc(CNc3ccc(N4CCOCC4)cc3)cc2-c2ccc(OC)cc2OC)cc1 [Example 96]
IC50 (Jily): > 1000 nM | IC50 (MRC5): > 1000 nM | IC50 (HeLa): > 1000 nM | IC50 (Jurkat): > 1000 nM | Hoechst 33342 nuclear staining score, H460 ([1]; conc 0.1): 0 | Hoechst 33342 nuclear staining score, H460 ([1]; conc 0.3): 0 | Hoechst 33342 nuclear staining score, H460 ([1]; conc 1): 0 | Hoechst 33342 nuclear staining score, H460 ([1]; conc 3): 0 | Hoechst 33342 nuclear staining score, HeLa ([1]; conc 0.1): 0 | Hoechst 33342 nuclear staining score, HeLa ([1]; conc 0.3): 0 | Hoechst 33342 nuclear staining score, HeLa ([1]; conc 1): 0 | Hoechst 33342 nuclear staining score, HeLa ([1]; conc 3): 0 | Hoechst 33342 nuclear staining score, Jily ([1]; conc 0.1): 0 | Hoechst 33342 nuclear staining score, Jily ([1]; conc 0.3): 0 | Hoechst 33342 nuclear staining score, Jily ([1]; conc 1): 0 | Hoechst 33342 nuclear staining score, Jily ([1]; conc 3): 1 (weak activity comprising less than 50% of the cells) | Hoechst 33342 nuclear staining score, Jurkat ([1]; conc 0.1): 0 | Hoechst 33342 nuclear staining score, Jurkat ([1]; conc 0.3): 0 | Hoechst 33342 nuclear staining score, Jurkat ([1]; conc 1): 0 | Hoechst 33342 nuclear staining score, Jurkat ([1]; conc 3): 0 | Hoechst 33342 nuclear staining score, MRC5 ([1]; conc 0.1): 0 | Hoechst 33342 nuclear staining score, MRC5 ([1]; conc 0.3): 0 | Hoechst 33342 nuclear staining score, MRC5 ([1]; conc 1): 0 | Hoechst 33342 nuclear staining score, MRC5 ([1]; conc 3): 0 | Hoechst 33342 nuclear staining score, PBLs ([1]; conc 0.1): 0 | Hoechst 33342 nuclear staining score, PBLs ([1]; conc 0.3): 0 | Hoechst 33342 nuclear staining score, PBLs ([1]; conc 1): 0 | Hoechst 33342 nuclear staining score, PBLs ([1]; conc 3): 0
